Where two headings read alike, the source gives them in different places.
Experiment: Biodistribution of 68Ga-labeled peptide in mice bearing B16F10 mouse melanoma
Type: in vivo, C57BL/6J mice
Details: iv, total radioactivity; for tissue uptake at 2 h: 2 h p.i. unblocked
Description: The B16-F10 melanoma cell line (Mus musculus) used in the tumor model was obtained commercially from ATTC (CRL-6475). Cells were cultured in Dulbecco's Modified Eagle's Medium (DMEM, StemCell Technologies) supplemented by 10% FBS, 100 U/mL penicillin and 100 μg/mL streptomycin at 37° C. in a humidified incubator containing 5% CO2. Cells grown to roughly 90% confluence were washed with sterile phosphate-buffered saline (lx PBS, pH 7.4), followed by trypsinization. For tumour implantation, C57BL/6J mice were anesthetized by inhalation with 2% isoflurane in 2.0 L/min of oxygen, 2×10^6 B16-F10 cells were inoculated subcutaneously on right dorsal flank. Mice were imaged or used in biodistribution studies once the tumour reached 6-8 mm in diameter.
Similar to PET/CT imaging, tumour-bearing mice were injected with 1-2 MBq of ^68Ga-labeled CCZ01099 via tail vein under anesthesia with or without co-injection of 0.5 mg of MC1R-specific inhibitor BMS 470539. At 1 or 2 h p.i., the mice were anesthetized again, and euthanized by CO2 inhalation. Blood was promptly withdrawn, and the organs of interest were harvested, rinsed with 1×PBS (pH 7.4), and blotted dry. Each organ was then weighed and the radioactivity of the collected tissue was measured using a Wallac WIZARD2 gamma counter (Perkin Elmer), normalized to the injected dose using a standard curve and expressed as the percentage of the injected dose per gram of tissue (% ID/g). Table 3 summarizes the biodistribution data of ^68Ga-labeled CCZ01099 at 1 and 2 h p.i., as well as 1 h p.i. with co-injection of 0.5 mg of MC1R-specific inhibitor BMS 470539. Minimal background tissue radioactivity accumulation was observed, except for kidney, which is expected as the radiolabeled peptides were cleared through the renal pathway.

SMILES: CCCC[C@H](NC(=O)CN1CCC(NC(=O)CN2CCN(CC(=O)O)CCN(CC(=O)O)CCN(CC(=O)O)CC2)CC1)C(=O)N[C@H]1CC(=O)NCCCC[C@@H](C(N)=O)N(C)C(=O)[C@H](Cc2c[nH]c3ccccc23)N(C)C(=O)[C@H](CCCNC(=N)N)N(C)C(=O)[C@@H](Cc2ccccc2)NC(=O)[C@H](Cc2c[nH]cn2)N(C)C1=O [^68Ga-labeled CCZ01099, metal not drawn]
- tissue uptake at 1 h (B16F10 tumour, 1 h p.i. unblocked, C57BL/6J mice, B16F10 melanoma, read-out: Biodistribution, B16F10 tumour): 6.12 ± 1.43 %ID/g
- tissue uptake at 2 h (B16F10 tumour, C57BL/6J mice, B16F10 melanoma, read-out: Biodistribution, B16F10 tumour): 5.22 ± 1.3 %ID/g
- tissue uptake at 1 h (C57BL/6J, B16F10 tumour, with BMS 470539 (MC1R-specific inhibitor), 0.5 mg co-injected, 1 h p.i. blocked, co-injection of 0.5 mg BMS 470539, read-out: Biodistribution, B16F10 tumour): 0.6 ± 0.15 %ID/g
- tissue uptake at 1 h (C57BL/6J, adrenal glands, with BMS 470539 (MC1R-specific inhibitor), 0.5 mg co-injected, 1 h p.i. blocked, co-injection of 0.5 mg BMS 470539, read-out: Biodistribution, Adrenal glands): 0.45 ± 0.29 %ID/g
- tissue uptake at 1 h (C57BL/6J, bone, with BMS 470539 (MC1R-specific inhibitor), 0.5 mg co-injected, 1 h p.i. blocked, co-injection of 0.5 mg BMS 470539, read-out: Biodistribution, Bone): 0.17 ± 0.1 %ID/g
- tissue uptake at 1 h (C57BL/6J, brain, with BMS 470539 (MC1R-specific inhibitor), 0.5 mg co-injected, 1 h p.i. blocked, co-injection of 0.5 mg BMS 470539, read-out: Biodistribution, Brain): 0.03 ± 0.02 %ID/g
- tissue uptake at 1 h (C57BL/6J, fat, with BMS 470539 (MC1R-specific inhibitor), 0.5 mg co-injected, 1 h p.i. blocked, co-injection of 0.5 mg BMS 470539, read-out: Biodistribution, Fat): 0.04 ± 0.02 %ID/g
- tissue uptake at 1 h (C57BL/6J, heart, with BMS 470539 (MC1R-specific inhibitor), 0.5 mg co-injected, 1 h p.i. blocked, co-injection of 0.5 mg BMS 470539, read-out: Biodistribution, Heart): 0.13 ± 0.02 %ID/g
- tissue uptake at 1 h (C57BL/6J, intestine, with BMS 470539 (MC1R-specific inhibitor), 0.5 mg co-injected, 1 h p.i. blocked, co-injection of 0.5 mg BMS 470539, read-out: Biodistribution, Intestine): 0.17 ± 0.05 %ID/g
- tissue uptake at 1 h (C57BL/6J, kidneys, with BMS 470539 (MC1R-specific inhibitor), 0.5 mg co-injected, 1 h p.i. blocked, co-injection of 0.5 mg BMS 470539, read-out: Biodistribution, Kidneys): 2.62 ± 0.91 %ID/g
- tissue uptake at 1 h (C57BL/6J, liver, with BMS 470539 (MC1R-specific inhibitor), 0.5 mg co-injected, 1 h p.i. blocked, co-injection of 0.5 mg BMS 470539, read-out: Biodistribution, Liver): 0.38 ± 0.11 %ID/g
- tissue uptake at 1 h (C57BL/6J, lungs, with BMS 470539 (MC1R-specific inhibitor), 0.5 mg co-injected, 1 h p.i. blocked, co-injection of 0.5 mg BMS 470539, read-out: Biodistribution, Lungs): 0.34 ± 0.13 %ID/g
- tissue uptake at 1 h (C57BL/6J, muscle, with BMS 470539 (MC1R-specific inhibitor), 0.5 mg co-injected, 1 h p.i. blocked, co-injection of 0.5 mg BMS 470539, read-out: Biodistribution, Muscle): 0.08 ± 0.03 %ID/g
- tissue uptake at 1 h (C57BL/6J, pancreas, with BMS 470539 (MC1R-specific inhibitor), 0.5 mg co-injected, 1 h p.i. blocked, co-injection of 0.5 mg BMS 470539, read-out: Biodistribution, Pancreas): 0.08 ± 0.01 %ID/g
- tissue uptake at 1 h (C57BL/6J, seminal glands, with BMS 470539 (MC1R-specific inhibitor), 0.5 mg co-injected, 1 h p.i. blocked, co-injection of 0.5 mg BMS 470539, read-out: Biodistribution, Seminal glands): 0.07 ± 0.03 %ID/g
- tissue uptake at 1 h (C57BL/6J, spleen, with BMS 470539 (MC1R-specific inhibitor), 0.5 mg co-injected, 1 h p.i. blocked, co-injection of 0.5 mg BMS 470539, read-out: Biodistribution, Spleen): 0.52 ± 0.28 %ID/g
- tissue uptake at 1 h (C57BL/6J, stomach, with BMS 470539 (MC1R-specific inhibitor), 0.5 mg co-injected, 1 h p.i. blocked, co-injection of 0.5 mg BMS 470539, read-out: Biodistribution, Stomach): 0.19 ± 0.12 %ID/g
- tissue uptake at 1 h (C57BL/6J, testes, with BMS 470539 (MC1R-specific inhibitor), 0.5 mg co-injected, 1 h p.i. blocked, co-injection of 0.5 mg BMS 470539, read-out: Biodistribution, Testes): 0.1 ± 0.02 %ID/g
- tissue uptake at 1 h (C57BL/6J, thyroid, with BMS 470539 (MC1R-specific inhibitor), 0.5 mg co-injected, 1 h p.i. blocked, co-injection of 0.5 mg BMS 470539, read-out: Biodistribution, Thyroid): 0.13 ± 0.05 %ID/g
- tissue uptake at 1 h (C57BL/6J, whole blood, with BMS 470539 (MC1R-specific inhibitor), 0.5 mg co-injected, 1 h p.i. blocked, co-injection of 0.5 mg BMS 470539, read-out: Biodistribution, Blood): 0.27 ± 0.04 %ID/g
- tissue uptake at 1 h (adrenal glands, 1 h p.i. unblocked, C57BL/6J mice, B16F10 melanoma, read-out: Biodistribution, Adrenal glands): 0.71 ± 0.67 %ID/g
- tissue uptake at 2 h (adrenal glands, C57BL/6J mice, B16F10 melanoma, read-out: Biodistribution, Adrenal glands): 0.33 ± 0.19 %ID/g
- tissue uptake at 1 h (bone, 1 h p.i. unblocked, C57BL/6J mice, B16F10 melanoma, read-out: Biodistribution, Bone): 0.32 ± 0.16 %ID/g
- tissue uptake at 2 h (bone, C57BL/6J mice, B16F10 melanoma, read-out: Biodistribution, Bone): 0.1 ± 0.03 %ID/g
- tissue uptake at 1 h (brain, 1 h p.i. unblocked, C57BL/6J mice, B16F10 melanoma, read-out: Biodistribution, Brain): 0.05 ± 0.04 %ID/g
- tissue uptake at 2 h (brain, C57BL/6J mice, B16F10 melanoma, read-out: Biodistribution, Brain): 0.01 %ID/g
- tissue uptake at 1 h (fat, 1 h p.i. unblocked, C57BL/6J mice, B16F10 melanoma, read-out: Biodistribution, Fat): 0.09 ± 0.04 %ID/g
- tissue uptake at 2 h (fat, C57BL/6J mice, B16F10 melanoma, read-out: Biodistribution, Fat): 0.02 ± 0.01 %ID/g
- tissue uptake at 1 h (heart, 1 h p.i. unblocked, C57BL/6J mice, B16F10 melanoma, read-out: Biodistribution, Heart): 0.26 ± 0.07 %ID/g
- tissue uptake at 2 h (heart, C57BL/6J mice, B16F10 melanoma, read-out: Biodistribution, Heart): 0.08 ± 0.01 %ID/g
- tissue uptake at 1 h (intestine, 1 h p.i. unblocked, C57BL/6J mice, B16F10 melanoma, read-out: Biodistribution, Intestine): 0.37 ± 0.11 %ID/g
- tissue uptake at 2 h (intestine, C57BL/6J mice, B16F10 melanoma, read-out: Biodistribution, Intestine): 0.53 ± 0.38 %ID/g
- tissue uptake at 1 h (kidneys, 1 h p.i. unblocked, C57BL/6J mice, B16F10 melanoma, read-out: Biodistribution, Kidneys): 5.98 ± 1.24 %ID/g
- tissue uptake at 2 h (kidneys, C57BL/6J mice, B16F10 melanoma, read-out: Biodistribution, Kidneys): 4.42 ± 0.55 %ID/g
- tissue uptake at 1 h (liver, 1 h p.i. unblocked, C57BL/6J mice, B16F10 melanoma, read-out: Biodistribution, Liver): 0.54 ± 0.07 %ID/g
- tissue uptake at 2 h (liver, C57BL/6J mice, B16F10 melanoma, read-out: Biodistribution, Liver): 0.44 ± 0.08 %ID/g
- tissue uptake at 1 h (lungs, 1 h p.i. unblocked, C57BL/6J mice, B16F10 melanoma, read-out: Biodistribution, Lungs): 0.74 ± 0.14 %ID/g
- tissue uptake at 2 h (lungs, C57BL/6J mice, B16F10 melanoma, read-out: Biodistribution, Lungs): 0.31 ± 0.05 %ID/g
- tissue uptake at 1 h (muscle, 1 h p.i. unblocked, C57BL/6J mice, B16F10 melanoma, read-out: Biodistribution, Muscle): 0.17 ± 0.05 %ID/g
- tissue uptake at 2 h (muscle, C57BL/6J mice, B16F10 melanoma, read-out: Biodistribution, Muscle): 0.04 %ID/g
- tissue uptake at 1 h (pancreas, 1 h p.i. unblocked, C57BL/6J mice, B16F10 melanoma, read-out: Biodistribution, Pancreas): 0.17 ± 0.04 %ID/g
- tissue uptake at 2 h (pancreas, C57BL/6J mice, B16F10 melanoma, read-out: Biodistribution, Pancreas): 0.07 ± 0.01 %ID/g
- tissue uptake at 1 h (seminal glands, 1 h p.i. unblocked, C57BL/6J mice, B16F10 melanoma, read-out: Biodistribution, Seminal glands): 0.11 ± 0.05 %ID/g
- tissue uptake at 2 h (seminal glands, C57BL/6J mice, B16F10 melanoma, read-out: Biodistribution, Seminal glands): 0.04 ± 0.01 %ID/g
- tissue uptake at 1 h (spleen, 1 h p.i. unblocked, C57BL/6J mice, B16F10 melanoma, read-out: Biodistribution, Spleen): 0.35 ± 0.07 %ID/g
- tissue uptake at 2 h (spleen, C57BL/6J mice, B16F10 melanoma, read-out: Biodistribution, Spleen): 0.19 ± 0.03 %ID/g
- tissue uptake at 1 h (stomach, 1 h p.i. unblocked, C57BL/6J mice, B16F10 melanoma, read-out: Biodistribution, Stomach): 0.26 ± 0.15 %ID/g
- tissue uptake at 2 h (stomach, C57BL/6J mice, B16F10 melanoma, read-out: Biodistribution, Stomach): 0.2 ± 0.16 %ID/g
- tissue uptake at 1 h (testes, 1 h p.i. unblocked, C57BL/6J mice, B16F10 melanoma, read-out: Biodistribution, Testes): 0.21 ± 0.06 %ID/g
- tissue uptake at 2 h (testes, C57BL/6J mice, B16F10 melanoma, read-out: Biodistribution, Testes): 0.07 ± 0.01 %ID/g
- tissue uptake at 1 h (thyroid, 1 h p.i. unblocked, C57BL/6J mice, B16F10 melanoma, read-out: Biodistribution, Thyroid): 0.31 ± 0.08 %ID/g
- tissue uptake at 2 h (thyroid, C57BL/6J mice, B16F10 melanoma, read-out: Biodistribution, Thyroid): 0.16 ± 0.03 %ID/g
- tissue uptake at 1 h (whole blood, 1 h p.i. unblocked, C57BL/6J mice, B16F10 melanoma, read-out: Biodistribution, Blood): 0.7 ± 0.15 %ID/g
- tissue uptake at 2 h (whole blood, C57BL/6J mice, B16F10 melanoma, read-out: Biodistribution, Blood): 0.19 ± 0.01 %ID/g

From US11395857B2, “Radiolabeled melanocortin 1 receptor-specific alpha-melanocyte-stimulating hormone analogues for imaging or therapy” (PROVINCIAL HEALTH SERVICES AUTHORITY, priority 2018, dated 2022)
